One series deals with T1, TbruGSK-3 short (Trypanosoma brucei brucei, UniProt Q388M1).
T1 construct: made in house
T1 sequence (Q388M1 1-352): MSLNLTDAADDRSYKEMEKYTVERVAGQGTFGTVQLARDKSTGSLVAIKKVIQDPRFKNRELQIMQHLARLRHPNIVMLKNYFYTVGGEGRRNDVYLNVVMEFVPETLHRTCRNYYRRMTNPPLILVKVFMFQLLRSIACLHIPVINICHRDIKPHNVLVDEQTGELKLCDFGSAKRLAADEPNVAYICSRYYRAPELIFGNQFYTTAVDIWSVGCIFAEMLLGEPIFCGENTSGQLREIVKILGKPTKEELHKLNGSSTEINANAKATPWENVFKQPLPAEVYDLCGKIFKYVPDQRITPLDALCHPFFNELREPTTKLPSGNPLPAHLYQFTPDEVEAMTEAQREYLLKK
Put plainly: TbruGSK-3 short Kinase-Glo luminescent ATP depletion assay. The series is classed as biochemical. To be noted: mean of at least 2 replicates; 2 µM ATP; read-out: Tbru GSK-3 short IC50. An excerpt:
Recombinant TbruGSK-3 short (accession number Tb10.161.3140) was produced at the University of Washington and shipped to Pfizer, Sandwich, UK for testing. Kinase-Glo reagent (Promega) was used as previously described. This luciferase coupled assay, which provides a luminescent quantification of ATP […] during the kinase reaction, was modified to a 384-well plate screening format. A selected library of 16,540 compounds comprising known HsGSK-3 beta inhibitors and close structural analogues was screened at 10 µM final assay concentration. Assay plates were prepared by dispensing 0.2 µL of compound (dissolved in 100% DMSO) from master plates into white 384-well plates (Greiner bio one). Primary screening was conducted in a 20 µL reaction volume. Enzyme was added to each well to a final concentration of 3.8 nM in a volume of 10 µl using a Multidrop Combi dispenser (Thermo Scientific) and the plates were incubated for 15 minutes at room temperature (RT). Glycogen synthase peptide 2 (BioGSP2; Sigma) and ATP, were dissolved in 20% acetonitrile and 1 M Tris-HCl pH 7.6 respectively, then diluted in assay buffer to a final concentration of 3.2 µM BioGSP2 and 2 µM ATP. The assay buffer consisted of 25 mM Tris-HCl pH 7.5, 10 mM MgCl2, 5 mM DTT, 0.1 mg/mL BSA, 2 U/mL Heparin and 10 µM EDTA. The reaction was initiated by adding 10 µL of the substrate mixture to each well and allowed to proceed at RT for 2 h. Twenty microlitres of Kinase-Glo reagent was added to quench the reaction. Luminescence was measured after 1 h at a 100 millisecond/well integration time using the Acquest Multimode plate reader (Molecular Devices). Each plate included a positive control (4 µM GW8510, Sigma) and negative control (1% DMSO). […] The data was analysed using Pfizer SIGHTS software and visualised using Spotfire software (TIBCO). Five separate 384-well plates were screened in duplicate to assess the assay reproducibility.
Background: Kinase-Glo reads ATP consumption through a luciferase reaction.

The subject of series [1] is T. brucei trypomastigotes (Squib-427 strain). Put plainly: T. brucei blood stage proliferation, resazurin. The class given is cell-based. The conditions noted are these: Trypanosoma brucei; blood stage form, 72 hours incubation; read-out: Tbru parasite EC50. As to the method:
(§1) Compounds with TbruGSK-3 short IC50<100 nM were tested for their ability to inhibit the proliferation of T. brucei (blood stage form). Cytotoxicity testing against human fetal lung fibroblast MRC-5 cell line was also performed. Both assays were carried out with compound concentrations up to 64 µM at the Laboratory for Microbiology, Parasitology and Hygiene, University of Antwerp (www.ua.ac.be). Briefly, T. brucei trypomastigotes (Squib-427 strain, suramin-sensitive) were cultured in Hirumi-9 medium supplemented with 10% fetal calf serum at 1.5×10^4 trypomastigotes per well. Following 72 hours incubation, parasite growth was assessed fluorimetrically by addition of resazurin. For cytotoxicity evaluation, 10^4 MRC-5 cells/well were seeded onto the test plates containing the pre-diluted compounds and incubated at 37°C with 5% CO2 for 72 hours. Cell viability was determined fluorimetrically after addition of resazurin [24], [25]. Single point kinase panel screening was also conducted on selected compounds at 10 µM by Invitrogen (www.Invitrogen.com) and University of Dundee, UK (www.dundee.ac.uk).
For orientation: Alamar Blue is a resazurin reagent that responds to reducing activity.

The nature of series [2]: Cytotoxicity against MRC-5 cell line, resazurin. The class given is cell-based, human. To be noted: human, MRC-5 fetal lung fibroblast cells; 72 hours incubation. As to the method:
as §1

The target in the next series is T2, HsGSK-3 beta (Homo sapiens, UniProt P49841).
T2 construct: purchased Invitrogen
T2 sequence (P49841 whole entry): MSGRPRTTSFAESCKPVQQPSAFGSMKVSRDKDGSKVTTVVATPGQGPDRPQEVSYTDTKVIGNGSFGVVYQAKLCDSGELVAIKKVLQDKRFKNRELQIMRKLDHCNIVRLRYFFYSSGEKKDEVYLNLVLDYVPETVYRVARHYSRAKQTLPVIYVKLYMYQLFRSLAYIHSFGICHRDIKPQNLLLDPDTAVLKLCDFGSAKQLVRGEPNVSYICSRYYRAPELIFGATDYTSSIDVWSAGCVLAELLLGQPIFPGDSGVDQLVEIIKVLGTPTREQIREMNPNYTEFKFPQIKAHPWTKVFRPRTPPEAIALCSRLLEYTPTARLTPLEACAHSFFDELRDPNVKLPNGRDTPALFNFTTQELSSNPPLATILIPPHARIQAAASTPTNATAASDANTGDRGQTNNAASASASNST
The experiment in a line: Human GSK-3 beta inhibition (Pfizer data files or Omnia Kinase Assay). The series is classed as biochemical. To be noted: recovered from Pfizer data files or Omnia Kinase Assay, mean of at least 2 replicates. Here is the method: Human GSK-3 beta inhibition data (IC50) for many of the compounds were recovered from Pfizer data files. If historical data were not available, the compounds were tested in an assay using 10 nM HsGSK-3 beta (Invitrogen) using Omnia Kinase Assay (Invitrogen) according to the manufacturer's instructions. The reaction volume was 20 µL and a range of compound concentrations were tested, up to a maximum of 40 µM. Briefly, 5 µl of HsGSK-3 beta was dispensed into black 384 assay plates (Greiner bio one) containing 0.2 µl of compounds. The enzyme was incubated with the compounds for 15 minutes at 30°C then 15 µl of substrate mixture was added to each well to commence the reaction. The substrate mixture consisted of 2 µL each of 2× kinase reaction buffer, 10 µM Omina peptide substrate, 0.2 mM DTT and 10 µM ATP, and 7 µL of ultra pure water. The reaction was allowed to proceed for 30 minutes at 30°C. Increase in fluorescence levels indicating peptide phosphorylation by the enzyme was monitored using an Envision (PerkinElmer) with λex 360/λem 485 nm and the data were analysed using Pfizer software SIGHTS and Spotfire (TIBCO).

Series [3] has as its system panel of approximately 40 human kinases. Put plainly: Single point human kinase panel screening. The class given is biochemical. To be noted: 10 µM. Here is the method: as §1
A further series concerns CaCo2 cell. Put plainly: CaCo2 cell flux assay. The series is classed as in vitro ADME. The conditions noted are these: data not shown.
Series [4] has as its system human fetal lung fibroblast MRC-5 cell line. Put plainly: Cytotoxicity against MRC-5 cell line, resazurin. To be noted: ratio of EC50s. The series is classed as cell-based. As to the method:
as §1

“Also recorded” adds a separate entry of the source.

One may read the IC50 as the concentration at which inhibition is half-maximal. The EC50 is the concentration that produces a half-maximal response.

As for `CS(=O)(=O)c1ccc(S(=O)(=O)Nc2ccc3c(Cl)c(C(=O)N4CCc5ccccc5C4)sc3c2)cc1` [AG-02449], at TbruGSK-3 short, the IC50 is 69 nM. Also, the EC50 in series [1] is 130 nM. The EC50 at 72 h in series [2] is 620 nM.

As to `CNCc1cncc(-c2ccc3[nH]nc(-c4nc5ccccc5[nH]4)c3c2)c1C` [AG-024290], the figures for the IC50 at TbruGSK-3 short and against HsGSK-3 beta were 62 nM and 173 nM, respectively. For the same molecule, the EC50 in series [1] was 130 nM. For the same molecule, in series [2], the EC50 at 72 h worked out at 130 nM.

Consider `CCc1nn(CCC(=O)Nc2cc([C@H]3C[C@@H](NC(C)=O)C3)[nH]n2)c2ccccc12` [CE-160042], for which the IC50 worked out at 142 nM at TbruGSK-3 short and 32 nM against HsGSK-3 beta. In addition, the EC50 in series [1] was more than 25000 nM. For the same molecule, the “human kinase panel specificity (in words)” value in series [3] is “highly specific and only inhibited HsGSK-3 beta; also recorded: no significant inhibition of any other kinases”. In addition, the “cell permeability in CaCo2 cell flux assay” value in the series on CaCo2 cell is on record as “no detectable cell permeability”.

In the case of `CCCC1=C(C#N)C(c2cccc3nonc23)c2cn[nH]c2N1` (centres unmarked) [CE-309608], the IC50 stood at 21 nM at TbruGSK-3 short and 46 nM on HsGSK-3 beta. Further, the EC50 in series [1] is 2690 nM. Further, the EC50 at 72 h in series [2] was 16000 nM.

Turning to `O=C(NC1CCN(C(=O)Cc2ccccc2)C1)c1ccc2[nH]nc(-c3nc4ccccc4[nH]3)c2c1` (centres unmarked) [CE-317112], the IC50 at TbruGSK-3 short turned out to be 99 nM; against HsGSK-3 beta, 3 nM. The EC50 in series [1] amounted to 1140 nM. This molecule also showed an EC50 at 72 h in series [2] of 39400 nM. The “selectivity window between T. brucei activity and activity on MRC5 cells” value in series [4] came out at 35 fold.

On to `CC(C)C(=O)Nc1cc([C@H]2C[C@@H](OC(=O)NCc3ccccc3Cl)C2)[nH]n1` [CE-324998], for which the IC50 amounted to 93 nM on TbruGSK-3 short and 1 nM against HsGSK-3 beta. Further, the EC50 in series [1] stood at 230 nM. For the same molecule, a half-maximal effect in series [2] (EC50 at 72 h) was put at 1220 nM.

`CC(C)C(=O)Nc1cc([C@H]2C[C@@H](OC(=O)NCc3cccc(C(F)(F)F)c3F)C2)[nH]n1` [CE-325011]: the IC50 at TbruGSK-3 short worked out at 94 nM; at HsGSK-3 beta, 5 nM. Moreover, the EC50 in series [1] came out at 1050 nM. In series [2], this molecule came in with an EC50 at 72 h of 2320 nM.

Regarding `CC(C)C(=O)Nc1cc([C@H]2C[C@@H](OC(=O)N(C)Cc3ccccc3)C2)[nH]n1` [CE-325692], the IC50 came to 65 nM on TbruGSK-3 short and 2 nM against HsGSK-3 beta. Further, the EC50 in series [1] was found to be 640 nM. This molecule returned an EC50 at 72 h in series [2] of 4670 nM.

Take `CCC(C(=O)Nc1cc([C@H]2C[C@@H](OC(=O)NCc3ccccn3)C2)[nH]n1)c1ccccc1` (some centres unmarked) [PF-00305135]: the IC50 on TbruGSK-3 short amounted to 67 nM; against HsGSK-3 beta, 3 nM. Further, in series [1], the EC50 came to 2450 nM. Besides, in series [2], it took 930 nM to reach a half-maximal effect (EC50 at 72 h).

In the case of `CN(C)C[C@@H](NC(=O)c1ccc2[nH]nc(-c3nc4ccccc4[nH]3)c2c1)c1ccccc1` [PF-00744923], the figures for the IC50 on TbruGSK-3 short and against HsGSK-3 beta were 70 nM and less than 1000 nM, respectively. Besides, the EC50 in series [1] turned out to be 130 nM. In series [2], this molecule displayed an EC50 at 72 h of 130 nM.

With `Cc1cc2nc(N3CCc4nc[nH]c(=O)c4C3)nc(Nc3cc(C4CC4)[nH]n3)c2s1` [PF-00956933], the values for the IC50 at TbruGSK-3 short and at HsGSK-3 beta were 57 nM and less than 1000 nM, respectively. Also, the 50% effective concentration (EC50) in series [1] came to 130 nM. The same molecule registered an EC50 at 72 h in series [2] of 2170 nM.

Turning to `Cc1cc(Nc2cc[nH]n2)nc(N(C)CCc2ccncc2)n1` [PF-01242377], the IC50 at TbruGSK-3 short came out at 61 nM; against HsGSK-3 beta it was 132 nM. Also, in series [1], the EC50 was determined as 130 nM. In series [2], this molecule had an EC50 at 72 h of 1180 nM.

For the molecule `CNC(=O)[C@@H]1CCCN1c1nc(Cc2cccc(C#N)c2)cc(Nc2cc(C3CC3)[nH]n2)n1` [PF-02368935], the IC50 on TbruGSK-3 short is 19 nM; against HsGSK-3 beta it was less than 1000 nM. Moreover, the EC50 in series [1] was 130 nM. This molecule gave an EC50 at 72 h in series [2] of 130 nM.

For `O=C(NCc1ccccc1)O[C@H]1C[C@@H](c2cc(NC(=O)C3CCCCC3)n[nH]2)C1` [PF-04279731], the IC50 at TbruGSK-3 short was found to be 62 nM; on HsGSK-3 beta it was 1 nM. Besides, in series [1], the EC50 came out at 1230 nM. In series [2], the EC50 at 72 h amounted to 1470 nM. For the same molecule, the “number of other kinases with >50% inhibition” value in series [3] was 2.

For `O=C1NCCc2[nH]c(-c3ccnc(Nc4ccc(-n5cccn5)cc4)c3)cc21` [PF-04903528], the figures for the IC50 at TbruGSK-3 short and at HsGSK-3 beta were 32 nM and 236 nM, respectively. For the same molecule, in series [1], the concentration for a half-maximal effect (EC50) came to 1130 nM. Also, in series [2], the midpoint of the response, the EC50 at 72 h, lay at 1130 nM.

For `O=c1ccc2cnc(Nc3ccccc3)nc2n1C1CC2CCC1C2` (centres unmarked) [compound 0180532], the IC50 at TbruGSK-3 short was 7270 nM; at HsGSK-3 beta it was 60 nM. In addition, the “number of other kinases with >50% inhibition” value in series [3] is 4.

Consider `O=c1ccc2cnc(Nc3ccc(N4CCC(CCCO)CC4)cc3)nc2n1C1CCCC1` [compound 0181276], for which the IC50 at TbruGSK-3 short is 600 nM; against HsGSK-3 beta, 4290 nM. Further, in series [3], the “human kinase panel specificity (in words)” value was “relatively specific against the wider human kinase panel”.

Source of the values: PMC3071371, “Trypanosoma brucei Glycogen Synthase Kinase-3, A Target for Anti-Trypanosomal Drug Development: A Public-Private Partnership to Identify Novel Leads” (PLoS Neglected Tropical Diseases, 2011).
